# Measured values from patent US20220096461A1, “LIQUID ORAL DOSAGE FORMULATIONS OF METHYLNALTREXONE” (Bausch Health Ireland Limited, priority 2019, published 2022).
# Legend:
# [1] = Partition coefficient between octanol and water (Log P); assay type: physicochemical; settings: n-octanol/water; ratios 9:1, 7:3, 1:1; HPLC
# Protocol: To determine the partition coefficient of each ion pair, about 15 mg of each ion pair was dissolved in separate 100 ml portions of n-octanol (previously saturated with water). Three n-octanol solutions were prepared for each ion pair. Mixtures having three different volumetric ratios of n-octanol to water (9:1, 7:3, and 1:1) were prepared by adding water and agitating the mixtures on a bench top agitator for two hours. After agitation, samples from each mixture were centrifuged for 10 min at 10,000 rpm to separate aqueous and n-octanol phase. The concentration of methylnaltrexone in the aqueous and n-octanol phases was determined by HPLC. Log P was calculated from the ratio of the drug concentration in n-octanol to the drug concentration in water.
# [2] = test system: opioid-induced constipation; settings: 12 mg subcutaneous injection; patients with chronic non-cancer pain; cited from earlier work
compound,measurement,setting,value
CCCCC(CC)COC(=O)CC(C(=O)OCC(CC)CCCC)S(=O)(=O)[O-].C[N+]1(CC2CC2)CCC23c4c5ccc(O)c4OC2C(=O)CCC3(O)C1C5 (stereo not drawn) [Methylnaltrexone - Docusate],LogP,[1],1.67
"C[N@+]1(CC2CC2)CC[C@]23c4c5ccc(O)c4O[C@H]2C(=O)CC[C@@]3(O)[C@H]1C5 [methylnaltrexone, (R)—N-methylnaltrexone]",Patients with three or more spontaneous bowel movements each week for four weeks,[2],59%
Methylnaltrexone - Lauryl Sulfate,LogP,[1],1.23
